In article PMC5654414, “In vitro and in vivo comparative and competitive activity-based protein profiling of GH29 α-L-fucosidases” (Chemical Science, 2015):

How the values were obtained:
FUCA1 = molecular target: T1, FUCA1 (Homo sapiens, UniProt P04066); assay: In vitro ABP labeling of FUCA1 overexpressed in COS cells; format: binding
T1 sequence (P04066 32-466): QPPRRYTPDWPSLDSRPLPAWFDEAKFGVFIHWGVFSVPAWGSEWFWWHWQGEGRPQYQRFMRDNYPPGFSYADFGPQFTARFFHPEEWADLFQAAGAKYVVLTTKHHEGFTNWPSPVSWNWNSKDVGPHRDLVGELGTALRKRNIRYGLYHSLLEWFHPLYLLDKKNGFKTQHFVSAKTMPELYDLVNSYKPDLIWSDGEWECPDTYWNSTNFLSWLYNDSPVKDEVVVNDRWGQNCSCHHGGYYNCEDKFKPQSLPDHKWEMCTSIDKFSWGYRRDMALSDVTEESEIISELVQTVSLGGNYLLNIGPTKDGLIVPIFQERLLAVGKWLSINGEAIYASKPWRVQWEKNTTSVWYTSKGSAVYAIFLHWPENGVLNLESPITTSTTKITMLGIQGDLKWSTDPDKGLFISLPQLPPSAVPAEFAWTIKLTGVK
From the text: (§1) Subsequently, we exposed lysates of spleens from a healthy human individual and a patient suffering from Gaucher disease to ABP 1.
(§2) The coding sequences of H. sapiens FUCA1 (NCBI reference sequence XM_005245821.1, using forward primer 5′-[…]-3′ and reverse primer 5′-[…]-3′), and of H. sapiens FUCA2 (NCBI reference sequence NM_032020.4, using forward primer 5′-[…] […]-3′ and reverse primer 5′-[…] […]-3′) were amplified via PCR and cloned into pDNOR-221 and thereafter sub-cloned in pcDNA™-DEST40 vector using the Gateway system (Invitrogen). Correctness of all constructs was verified by sequencing. Confluent COS-7 cells were transfected with pcDNA3.1 empty vector (Mock) or the vector with described insert in conjunction with FuGENE (Roche).
(§3) All pre-incubations and ABP labeling-reactions occurred for 30 min at 37 °C. Total lysates (50 μg), medium (500 μg) or purified protein preparations (5 μg) were labeled with 1 μM JJB256 1 or JJB244 2, dissolved in 150 mM McIlvaine buffer, pH 4.5, incubating for 30 min at 37 °C. […] Wet slab-gels were scanned on fluorescence using a Typhoon Variable Mode Imager (Amersham Biosciences) using λEX 488 nm and λEM 520 nm (band pass filter 40 nm) for green fluorescent JJB256 1 and λEX 532 nm and λEM 610 nM (band pass filter 30 nm) for red fluorescent JJB244 2 and JJB75.

FUCA2 = molecular target: T2, FUCA2 (Homo sapiens, UniProt Q9BTY2); assay: In vitro ABP labeling of FUCA2 overexpressed in COS cells; format: binding
T2 construct: expressed in transfected cells; host or cells: COS-7
T2 sequence (Q9BTY2 29-467): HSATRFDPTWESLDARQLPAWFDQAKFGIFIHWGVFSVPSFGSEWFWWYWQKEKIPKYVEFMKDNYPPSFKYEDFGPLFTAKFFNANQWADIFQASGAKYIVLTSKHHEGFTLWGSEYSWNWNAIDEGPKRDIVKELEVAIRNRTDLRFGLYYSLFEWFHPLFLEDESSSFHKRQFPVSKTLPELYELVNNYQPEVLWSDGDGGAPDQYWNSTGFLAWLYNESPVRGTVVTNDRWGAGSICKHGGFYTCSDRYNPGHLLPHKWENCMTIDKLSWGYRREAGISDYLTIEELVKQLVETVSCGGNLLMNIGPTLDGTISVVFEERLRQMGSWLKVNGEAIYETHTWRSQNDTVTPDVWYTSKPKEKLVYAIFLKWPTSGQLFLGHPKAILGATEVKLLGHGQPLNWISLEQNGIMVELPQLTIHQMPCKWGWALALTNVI
From the text: as §1, §2, §3

labeling of enzyme (FUCA1): labeled
labeling of enzyme (FUCA2): labeled
SMILES: CC1=CC(C)=[N+]2C1=C(CCCCc1cn(CCCCCCCC(=O)N3[C@@H]4[C@@H](C)[C@@H](O)[C@@H](O)[C@H](O)[C@@H]43)nn1)c1c(C)cc(C)n1[B-]2(F)F [compound 1]
